Laboratory results taken from patent US10501441B2, “Substituted imidazolylcarboxamides as pesticides” (BAYER CROPSCIENCE AKTIENGESELLSCHAFT, priority 2016, dated 2019).

How the values were obtained:
Myzus persicae [1] = experiment: Myzus persicae - oral test (MYZUPE O); format: in vivo; conditions: for efficacy (aphids killed) / pest or weed control at 20 ppm: 20 ppm, after 5 days; for pest or weed control at 20 ppm / Emax at 0.8 ppm / Emax at 4 ppm: Myzus persicae, po, 120 h; for pest or weed control at 20 ppm: read-out: efficacy (aphids killed); for Emax at 0.8 ppm / Emax at 4 ppm: MYZUPE O, 5 dat, read-out: % efficacy
Procedure: Solvent: 100 parts by weight of acetone
50 μl of the active compound preparation are transferred into microtitre plates and made up to a final volume of 200 μl with 150 μl of IPL41 insect medium (33%+15% sugar). Subsequently, the plates are sealed with parafilm, which a mixed population of green peach aphids (Myzus persicae) within a second microtitre plate is able to puncture and imbibe the solution through it.
After 5 days, the efficacy in % is determined. 100% means that all the aphids have been killed; 0% means that no aphids have been killed.
Myzus persicae—Oral Test (MYZUPE O)
(§1) After the desired period of time (dat), the efficacy in % is determined. 100% means that all the aphids have been killed; 0% means that no aphids have been killed.

[2] = log P by reversed-phase HPLC (C18), EEC directive 79/831 Annex V.A8, neutral range; format: physicochemical; conditions: pH 7.8; for chromatographic logP: reversed-phase HPLC column (C18), read-out: Logp [n]
Procedure: a) The log P values reported in the tables and preparation examples above were determined in accordance with EEC directive 79/831 Annex V.A8 by HPLC (High Performance Liquid Chromatography) using a reversed-phase column (C18). Temperature 43° C. The calibration is effected with unbranched alkan-2-ones (having 3 to 16 carbon atoms), for which the log P values are known. […] The log P values for the acidic range (as log P [a]) and/or for the neutral range (as log P [n]) were stated in the tables and preparation examples above.

Myzus persicae [3] = experiment: Myzus persicae - spray test (MYZUPE); format: in vivo; conditions: for efficacy (aphids killed) / pest or weed control at 500 g/ha: 500 g/ha, Chinese cabbage leaf discs, after 5-6 days; for pest or weed control at 500 g/ha: foliar, read-out: efficacy (aphids killed)
Procedure: Myzus persicae—Spray Test
Solvents: 78 parts by weight of acetone • • 1.5 parts by weight of dimethylformamide
(§2) Emulsifier: alkylaryl polyglycol ether
After 5-6 days, the efficacy in % is determined. 100% means that all the aphids have been killed; 0% means that no aphids have been killed.
Myzus persicae—Spray Test (MYZUPE)
(§3) Solvents: 78.0 parts by weight of acetone • • 1.5 parts by weight of dimethylformamide
as §1

Tetranychus urticae = Tetranychus urticae - spray test, OP-resistant (TETRUR); format: in vivo
Procedure: Tetranychus urticae—Spray Test, OP-Resistant
as §3, §2
After 6 days, the efficacy in % is determined. 100% means that all the spider mites have been killed; 0% means that no spider mites have been killed.
Tetranychus urticae—Spray Test; OP Resistant (TETRUR)
After the desired period of time (dat), the efficacy in % is determined. 100% means that all the spider mites have been killed; 0% means that none of the spider mites have been killed.

Boophilus microplus = Boophilus microplus - injection test; format: in vivo; conditions: 20 μg/animal, engorged adult female cattle ticks, after 7 days
Procedure: Boophilus microplus—Injection Test
Solvent: dimethyl sulphoxide
To produce a suitable preparation of active compound, 10 mg of active compound are mixed with 0.5 ml of solvent and the concentrate is diluted with solvent to the desired concentration.
1 μl of the active compound solution is injected into the abdomen of 5 engorged adult female cattle ticks (Boophilus microplus). The animals are transferred into dishes and kept in a climate-controlled room.
Efficacy is assessed after 7 days by laying of fertile eggs. Eggs which are not visibly fertile are stored in a climate-controlled cabinet until the larvae hatch after about 42 days. An efficacy of 100% means that none of the ticks has laid any fertile eggs; 0% means that all the eggs are fertile.

[4] = neutral range, HPLC C18, 43° C.

Structure (SMILES)	efficacy (aphids killed) (Myzus persicae [1])	Logp [n] [2, 4]	efficacy (aphids killed) (Myzus persicae [3])	further results
CCN(C(=O)c1cnc(-n2cc(C(F)(F)F)cn2)n1C)c1cccnc1 [I-1-014]	100%	2.09	90%	
CCN(C(=O)c1cnc(-n2cc(C#N)cn2)n1C)c1cccnc1 [I-1-015]				efficacy (spider mites killed) (Tetranychus urticae; 500 g/ha, bean leaf discs, after 6 days): 90%; Emax at 500 g/ha (Tetranychus urticae; Tetranychus urticae, 144 h, TETRUR, 6 dat, read-out: % efficacy): 90%; pest or weed control at 20 ppm (Myzus persicae [1]): 100%; Emax at 0.8 ppm (Myzus persicae [1]): 100%; Emax at 4 ppm (Myzus persicae [1]): 100%; chromatographic logP [2, 4]: 1.42; pest or weed control at 500 g/ha (Myzus persicae [3]; Myzus persicae): 90%
CC1CCN(c2ncc(C(=O)N(C)c3cccnc3)n2C)CC1 [I-1-016]	100%	1.87	90%	
CN(C(=O)c1cnc(N2CCC(C#N)CC2)n1C)c1cccnc1 [I-1-017]				pest or weed control at 20 ppm (Myzus persicae [1]): 100%; Emax at 0.8 ppm (Myzus persicae [1]): 100%; Emax at 4 ppm (Myzus persicae [1]): 100%; chromatographic logP [2, 4]: 1.16; Emax at 100 g/ha (Myzus persicae [3]; Myzus persicae, 120 h, MYZUPE, 100 g of ai/ha, 5 dat, read-out: % efficacy): 90%; pest or weed control at 500 g/ha (Myzus persicae [3]; Myzus persicae): 100%
CN(C(=O)c1cnc(N2CCC(c3ccccc3)CC2)n1C)c1cccnc1 [I-1-018]	100%	2.38	100%	
CN(C(=O)c1cnc(N2CCCC2)n1C)c1cccnc1 [I-1-019]	100%		100%	Logp [n] [2]: 1.19
CC1CC(C)CN(c2ncc(C(=O)N(C)c3cccnc3)n2C)C1 (centres unmarked) [I-1-020]	100%	2.21	100%	
Cc1cnn(-c2ncc(C(=O)N(C)c3cccnc3)n2C)c1 [I-1-021]	100%	1.29	100%	
Cc1cn(-c2ncc(C(=O)N(C)c3cccnc3)n2C)nc1C [I-1-023]		1.42		
Cc1ccn(-c2ncc(C(=O)N(C)c3cccnc3)n2C)n1 [I-1-024]		1.18		
CN(C(=O)c1cnc(-n2ccnc2)n1C)c1cccnc1 [I-1-025]				Logp [n] [2]: 0.56
CN(C(=O)c1cnc(-n2cnc(Cl)n2)n1C)c1cccnc1 [I-1-026]		1.17		
CN(C(=O)c1cnc(-n2cc3c(n2)CCC3)n1C)c1cccnc1 [I-1-027]		1.5		
CN(C(=O)c1cnc(-n2ncc(C#N)c2N)n1C)c1cccnc1 [I-1-028]		0.78		
CCN(C(=O)c1cnc(-n2ccc(C#N)n2)n1C)c1cccnc1 [I-1-029]		1.53		
CC(C)c1cnn(-c2ncc(C(=O)N(C)c3cccnc3)n2C)c1 [I-1-030]		1.84		
CN(C(=O)c1cnc(-n2cnc(C#N)n2)n1C)c1cccnc1 [I-1-031]		1.22		efficacy (laying of fertile eggs) (Boophilus microplus): 80%
